Test results from patent publication US11725036B2, “Modified lipidated relaxin B chain peptides and their therapeutic use” (Sanofi, priority 2018, dated 2023).
Starred links: 1 amine or outer side, 2 acyl side, 3 side chain; linkers in the order of their positions; H or OH if unused. Non-standard residues stand in square brackets, D forms with d. Residues, ends and D or L forms follow the SMILES beside them. Groups on a side chain read outwards from the residue. *: point of attachment. X5 = CCCCCCCCCCCCCCCC(=O)N[C@@H](CCC(=O)N[C@@H](CCC(=O)N[C@@H](CCC(=O)NCCCOCCOCCOCCCNC(=O)CCC(=O)NCCCOCCOCCOCCCNC(=O)CCC(=O)NCCCOCCOCCOCCCNC(=O)CCC(=O)NCCCOCCOCCOCCCN*)C(=O)O)C(=O)O)C(=O)O; X7 = CCCCCCCCCCCCCCCC(=O)N[C@@H](CCC(=O)N[C@@H](CCC(=O)N[C@@H](CCC(=O)NCCCOCCOCCOCCCNC(=O)COCC(=O)NCCCOCCOCCOCCCNC(=O)COCC(=O)NCCCOCCOCCOCCCNC(=O)COCC(=O)*)C(=O)O)C(=O)O)C(=O)O; X3 = CCCCCCCCCCCCCCCCCC(=O)N[C@@H](CCC(=O)N[C@@H](CCC(=O)N[C@@H](CCC(=O)NCCCOCCOCCOCCCNC(=O)CCC(=O)NCCCOCCOCCOCCCNC(=O)CCC(=O)NCCCOCCOCCOCCCN*)C(=O)O)C(=O)O)C(=O)O; X1 = CCCCCCCCCCCCCCCC(=O)N[C@@H](CCC(=O)N[C@@H](CCC(=O)N[C@@H](CCC(=O)NCCCOCCOCCOCCCNC(=O)CCC(=O)NCCCOCCOCCOCCCNC(=O)CCC(=O)NCCCOCCOCCOCCCN*)C(=O)O)C(=O)O)C(=O)O; γGlu = O=C(O)[C@H](CCC(=O)[*:2])N[*:1]; Palmitoyl = CCCCCCCCCCCCCCCC(=O)*; Suc = O=C(CCC(=O)[*:2])[*:1]; αMeK = C[C@](N)(CCCCN)C(=O)O; AEEA = NCCOCCOCC(=O)O; Aib = CC(C)(N)C(=O)O

Target: T1, RXFP1 (Homo sapiens, UniProt Q9HBX9)
T1 construct: OVCAR5 cells expressing endogenous RXFP1; endogenous in cells; host or cells: OVCAR5
T1 sequence (Q9HBX9 1-757): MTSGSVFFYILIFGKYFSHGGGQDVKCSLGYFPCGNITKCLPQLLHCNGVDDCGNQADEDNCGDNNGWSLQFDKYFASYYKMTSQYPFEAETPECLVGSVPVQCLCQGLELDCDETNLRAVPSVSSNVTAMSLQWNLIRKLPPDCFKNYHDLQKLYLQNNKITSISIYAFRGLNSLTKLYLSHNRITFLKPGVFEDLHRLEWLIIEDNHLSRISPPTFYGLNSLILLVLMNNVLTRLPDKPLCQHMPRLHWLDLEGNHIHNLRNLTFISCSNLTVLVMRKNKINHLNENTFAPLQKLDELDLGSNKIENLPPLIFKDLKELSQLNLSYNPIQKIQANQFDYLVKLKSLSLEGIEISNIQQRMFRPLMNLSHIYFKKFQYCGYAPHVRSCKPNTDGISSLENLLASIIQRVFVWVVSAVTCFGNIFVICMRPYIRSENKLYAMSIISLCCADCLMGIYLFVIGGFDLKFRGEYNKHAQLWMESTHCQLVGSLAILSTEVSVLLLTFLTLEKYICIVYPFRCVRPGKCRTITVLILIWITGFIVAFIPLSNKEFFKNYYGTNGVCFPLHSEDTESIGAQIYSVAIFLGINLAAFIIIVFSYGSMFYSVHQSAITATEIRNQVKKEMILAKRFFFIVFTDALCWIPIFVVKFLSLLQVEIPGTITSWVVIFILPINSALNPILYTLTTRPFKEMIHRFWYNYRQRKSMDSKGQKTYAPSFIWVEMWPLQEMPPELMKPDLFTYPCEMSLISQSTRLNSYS
Assay: OVCAR5 cAMP assay (HTRF)
Format: cell-based
Conditions: for EC50: OVCAR 5 cells expressing endogenous RXFP1, cAMP readout; for Emax: OVCAR 5 cells, maximal cAMP relative to H2-relaxin
How it was run: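 Endogenous RXFP1 in OVCAR5 cells, pretreated 40 min at 37° C with 1 mM IBMX, then exposed to increasing peptide concentrations in serum-free medium for 30 min at 37° C. cAMP read by HTRF; EC50 by variable-slope sigmoidal fit, Emax as % of H2-relaxin maximal cAMP in same run.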

`CCCCCCCCCCCCCCCC(=O)N[C@@H](CCC(=O)N[C@@H](CCC(=O)N[C@@H](CCC(=O)NCCCOCCOCCOCCCNC(=O)CCC(=O)NCCCOCCOCCOCCCNC(=O)CCC(=O)NCCCOCCOCCOCCCNC(=O)CCC(=O)NCCCC[C@H](NC(=O)CNC(=O)[C@H](CCC(=O)O)NC(=O)C(C)(C)NC(=O)C(C)(C)NC(=O)[C@@H](NC(=O)[C@H](CCCCNC(C)=O)NC(=O)[C@H](C)NC(=O)[C@H](CCCNC(=N)N)NC(=O)[C@@H](NC(=O)[C@H](CCCCN)NC(=O)[C@H](CCC(=O)O)NC(=O)[C@H](CCCNC(=N)N)NC(=O)CNC(=O)[C@H](CCC(=O)O)NC(=O)[C@H](CC(C)C)NC(C)=O)C(C)C)[C@@H](C)CC)C(=O)N[C@@H](CO)C(=O)N[C@H](C(=O)N[C@@H](Cc1ccccc1)C(=O)N[C@@H](CO)C(=O)N[C@@](C)(CCCCN)C(=O)N[C@@H](CCCNC(=N)N)C(=O)N[C@@H](C)C(=O)N[C@@H](CCCCN)C(N)=O)[C@@H](C)O)C(=O)O)C(=O)O)C(=O)O` [compound 49] (Ac-LEGREKVRAK(Ac)I[Aib][Aib]EGK([Suc-X1])STFS[αMeK]RAK-NH2) showed an EC50 of 0.19 nM and an Emax of 97%.

`CCCCCCCCCCCCCCCCCC(=O)N[C@@H](CCC(=O)N[C@@H](CCC(=O)N[C@@H](CCC(=O)NCCCOCCOCCOCCCNC(=O)CCC(=O)NCCCOCCOCCOCCCNC(=O)CCC(=O)NCCCOCCOCCOCCCNC(=O)CCC(=O)NCCCC[C@H](NC(=O)CNC(=O)[C@H](CCC(=O)O)NC(=O)C(C)(C)NC(=O)C(C)(C)NC(=O)[C@@H](NC(=O)[C@H](CCCCNC(C)=O)NC(=O)[C@H](C)NC(=O)[C@H](CCCNC(=N)N)NC(=O)[C@@H](NC(=O)[C@H](CCCCN)NC(=O)[C@H](CCC(=O)O)NC(=O)[C@H](CCCNC(=N)N)NC(=O)CNC(=O)[C@H](CCC(=O)O)NC(=O)[C@H](CC(C)C)NC(C)=O)C(C)C)[C@@H](C)CC)C(=O)N[C@@H](CO)C(=O)N[C@H](C(=O)N[C@@H](Cc1c[nH]c2ccccc12)C(=O)N[C@@H](CO)C(=O)N[C@@](C)(CCCCN)C(=O)N[C@@H](CCCNC(=N)N)C(=O)N[C@@H](C)C(=O)N[C@@H](CCCCNC(C)=O)C(N)=O)[C@@H](C)O)C(=O)O)C(=O)O)C(=O)O` [compound 30] (Ac-LEGREKVRAK(Ac)I[Aib][Aib]EGK([Suc-X3])STWS[αMeK]RAK(Ac)-NH2) showed an EC50 of 0.21 nM and an Emax of 89%.

With `CCCCCCCCCCCCCCCC(=O)N[C@@H](CCC(=O)N[C@@H](CCC(=O)N[C@@H](CCC(=O)NCCCOCCOCCOCCCNC(=O)COCC(=O)NCCCOCCOCCOCCCNC(=O)COCC(=O)NCCCOCCOCCOCCCNC(=O)COCC(=O)NCCCC[C@H](NC(=O)CNC(=O)[C@H](CCC(=O)O)NC(=O)C(C)(C)NC(=O)C(C)(C)NC(=O)[C@@H](NC(=O)[C@H](CCCCNC(C)=O)NC(=O)[C@H](C)NC(=O)[C@H](CCCNC(=N)N)NC(=O)[C@@H](NC(=O)[C@H](CCCCN)NC(=O)[C@H](CCC(=O)O)NC(=O)[C@H](CCCNC(=N)N)NC(=O)CNC(=O)[C@H](CCC(=O)O)NC(=O)[C@H](CC(C)C)NC(C)=O)C(C)C)[C@@H](C)CC)C(=O)N[C@@H](CO)C(=O)N[C@H](C(=O)N[C@@H](Cc1ccccc1)C(=O)N[C@@H](CO)C(=O)N[C@@](C)(CCCCN)C(=O)N[C@@H](CCCNC(=N)N)C(=O)N[C@@H](C)C(=O)N[C@@H](CCCCNC(C)=O)C(N)=O)[C@@H](C)O)C(=O)O)C(=O)O)C(=O)O` [compound 22] (Ac-LEGREKVRAK(Ac)I[Aib][Aib]EGK(X7)STFS[αMeK]RAK(Ac)-NH2) the EC50 was 1 nM and the Emax was 92%.

With `CCCCCCCCCCCCCCCC(=O)N[C@@H](CCC(=O)N[C@@H](CCC(=O)N[C@@H](CCC(=O)NCCOCCOCC(=O)NCCOCCOCC(=O)NCCOCCOCC(=O)NCCOCCOCC(=O)NCCCC[C@H](NC(=O)CNC(=O)[C@H](CCC(=O)O)NC(=O)C(C)(C)NC(=O)C(C)(C)NC(=O)[C@@H](NC(=O)[C@H](CCCCNC(C)=O)NC(=O)[C@H](C)NC(=O)[C@H](CCCNC(=N)N)NC(=O)[C@@H](NC(=O)[C@H](CCCCN)NC(=O)[C@H](CCC(=O)O)NC(=O)[C@H](CCCNC(=N)N)NC(=O)CNC(=O)[C@H](CCC(=O)O)NC(=O)[C@H](CC(C)C)NC(C)=O)C(C)C)[C@@H](C)CC)C(=O)N[C@@H](CO)C(=O)N[C@H](C(=O)N[C@@H](Cc1ccccc1)C(=O)N[C@@H](CO)C(=O)N[C@@](C)(CCCCN)C(=O)N[C@@H](CCCNC(=N)N)C(=O)N[C@@H](C)C(=O)N[C@@H](CCCCNC(C)=O)C(N)=O)[C@@H](C)O)C(=O)O)C(=O)O)C(=O)O` [compound 8] (Ac-LEGREKVRAK(Ac)I[Aib][Aib]EGK([AEEA-AEEA-AEEA-AEEA-γGlu-γGlu-γGlu-Palmitoyl])STFS[αMeK]RAK(Ac)-NH2) the EC50 was 1.86 nM and the Emax was 92%.

Work on `CCCCCCCCCCCCCCCC(=O)N[C@@H](CCC(=O)N[C@@H](CCC(=O)N[C@@H](CCC(=O)NCCCOCCOCCOCCCNC(=O)CCC(=O)NCCCOCCOCCOCCCNC(=O)CCC(=O)NCCCOCCOCCOCCCNC(=O)CCC(=O)NCCCC[C@H](NC(=O)CNC(=O)[C@H](CCC(=O)O)NC(=O)C(C)(C)NC(=O)C(C)(C)NC(=O)[C@@H](NC(=O)[C@H](CCCCNC(C)=O)NC(=O)C(C)(C)NC(=O)[C@H](CCCNC(=N)N)NC(=O)[C@@H](NC(=O)[C@H](CCCCN)NC(=O)[C@H](CCC(=O)O)NC(=O)[C@H](CCCNC(=N)N)NC(=O)CNC(=O)[C@H](CCC(=O)O)NC(=O)[C@H](CC(C)C)NC(C)=O)C(C)C)[C@@H](C)CC)C(=O)N[C@@H](CO)C(=O)N[C@H](C(=O)N[C@@H](Cc1ccccc1)C(=O)N[C@@H](CO)C(=O)N[C@@](C)(CCCCN)C(=O)N[C@@H](CCCNC(=N)N)C(=O)N[C@@H](C)C(=O)N[C@@H](CCCCNC(C)=O)C(N)=O)[C@@H](C)O)C(=O)O)C(=O)O)C(=O)O` [compound 29] (Ac-LEGREKVR[Aib]K(Ac)I[Aib][Aib]EGK([Suc-X1])STFS[αMeK]RAK(Ac)-NH2) yielded an EC50 of 1.6 nM and an Emax of 88%.

With `CCCCCCCCCCCCCCCC(=O)N[C@@H](CCC(=O)N[C@@H](CCC(=O)N[C@@H](CCC(=O)NCCCOCCOCCOCCCNC(=O)CCC(=O)NCCCOCCOCCOCCCNC(=O)CCC(=O)NCCCOCCOCCOCCCNC(=O)CCC(=O)NCCCOCCOCCOCCCNC(=O)CCC(=O)NCCCC[C@H](NC(=O)CNC(=O)[C@H](CCC(=O)O)NC(=O)C(C)(C)NC(=O)C(C)(C)NC(=O)[C@@H](NC(=O)[C@H](CCCCNC(C)=O)NC(=O)[C@H](C)NC(=O)[C@H](CCCNC(=N)N)NC(=O)[C@@H](NC(=O)[C@H](CCCCN)NC(=O)[C@H](CCC(=O)O)NC(=O)[C@H](CCCNC(=N)N)NC(=O)CNC(=O)[C@H](CCC(=O)O)NC(=O)[C@H](CC(C)C)NC(C)=O)C(C)C)[C@@H](C)CC)C(=O)N[C@@H](CO)C(=O)N[C@H](C(=O)N[C@@H](Cc1ccccc1)C(=O)N[C@@H](CO)C(=O)N[C@@](C)(CCCCN)C(=O)N[C@@H](CCCNC(=N)N)C(=O)N[C@@H](C)C(=O)N[C@@H](CCCCNC(C)=O)C(N)=O)[C@@H](C)O)C(=O)O)C(=O)O)C(=O)O` [compound 78] (Ac-LEGREKVRAK(Ac)I[Aib][Aib]EGK([Suc-X5])STFS[αMeK]RAK(Ac)-NH2) the EC50 was 0.18 nM and the Emax was 99%.

`CCCCCCCCCCCCCCCC(=O)N[C@@H](CCC(=O)N[C@@H](CCC(=O)N[C@@H](CCC(=O)NCCOCCOCC(=O)NCCOCCOCC(=O)NCCOCCOCC(=O)NCCOCCOCC(=O)NCCCC[C@H](NC(=O)CNC(=O)[C@H](CCC(=O)O)NC(=O)C(C)(C)NC(=O)C(C)(C)NC(=O)[C@@H](NC(=O)[C@H](CCCCNC(C)=O)NC(=O)[C@H](C)NC(=O)[C@H](CCCNC(=N)N)NC(=O)[C@@H](NC(=O)[C@H](CCCCN)NC(=O)[C@H](CCC(=O)O)NC(=O)[C@H](CCCNC(=N)N)NC(=O)CNC(=O)[C@H](CCC(=O)O)NC(=O)[C@H](CC(C)C)NC(C)=O)C(C)C)[C@@H](C)CC)C(=O)N[C@@H](CO)C(=O)N[C@H](C(=O)N[C@@H](Cc1c[nH]c2ccccc12)C(=O)N[C@@H](CO)C(=O)N[C@@](C)(CCCCN)C(=O)N[C@@H](CCCNC(=N)N)C(=O)N[C@@H](C)C(=O)N[C@@H](CCCCNC(C)=O)C(N)=O)[C@@H](C)O)C(=O)O)C(=O)O)C(=O)O` [compound 42] (Ac-LEGREKVRAK(Ac)I[Aib][Aib]EGK([AEEA-AEEA-AEEA-AEEA-γGlu-γGlu-γGlu-Palmitoyl])STWS[αMeK]RAK(Ac)-NH2) gave an EC50 of 1.5 nM and an Emax of 84%.
